Experimental data from the METLIN SMRT retention time set (Domingo-Almenara et al. 2019).

Experiment: gradient 5% acetonitrile 3 min, to 50% in 2 min, to 85% in 15 min, held 3 min, 100 µL/min
Details: column: Zorbax Extend-C18 2.1 x 50 mm; eluents: water / acetonitrile, 0.1% formic acid
Procedure, shortened: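 Standards, all pure, were combined into mixtures of ~100 molecules and run at 100 μL/min on a Zorbax Extend-C18 column (2.1 × 50 mm, 1.8 μm) with water and acetonitrile, each containing 0.1% formic acid. A coupled quadrupole time-of-flight mass spectrometer operated in positive and negative ionization mode. Retention time values come from computationally picked adduct peaks, each inspected manually.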

Compound	RP-LC retention time
CCC(C)NC(=O)C1CCN(c2cncnc2N2CCCC2)CC1 (centres undefined)	608 s
CCC(=O)N1CCc2cc(C)c(S(=O)(=O)NCc3ccco3)cc21	664 s
CCOC(=O)c1cnc(Nc2nc(C)c3cc(OC)ccc3n2)nc1C	681 s
Cc1cc2nc(C(=O)Nc3cccc(C#N)c3)cc(C)n2n1	901 s
Cc1sc(-c2cc(C(F)(F)F)on2)cc1S(=O)(=O)NCc1ccccc1Cl	1140 s
O=C(Nc1cccnc1OC1CCNCC1)C1(c2ccccc2)CC1	646 s
COc1ccc(CCCOC(Cn2ccnc2)c2ccc(OC)cc2)cc1 (centres undefined)	785 s
Cc1ccc(OCc2ccc(-c3nc(C#N)c(NCCCN(C)C)o3)o2)cc1	717 s
CC(C)(C)c1ccc(C(=O)N2CCN(c3nc(CN4CCOCC4)cs3)CC2)cc1	711 s
CCn1cc(S(=O)(=O)N2C[C@H]3CN(S(=O)(=O)c4cccc(C)c4)C[C@@H](C2)O3)cn1	833 s
Cc1cnc(C2CC2)n1C1CCN(C(=O)c2cccn2C)C1 (centres undefined)	583 s
CC(C)(C)c1csc(-c2csc(S(=O)(=O)NCc3cccs3)c2)n1	1180 s
O=C(CN1C(=O)CSc2ccc(C(=O)N3CCCCC3)cc21)NCCCN1CCCCC1	610 s
Cc1sc(C)c(S(=O)(=O)NCc2ccccc2Cl)c1-c1cc(C(F)(F)F)on1	653 s
N#Cc1c(N)nc(SCC(=O)c2ccc(Br)cc2)c(C#N)c1-c1ccccc1	997 s
O=C(NC1CC1)C1CCN(S(=O)(=O)c2cc(C(=O)N3CCCCCC3)cs2)CC1	713 s
COCCNC(=O)c1cccnc1N1CCNC(c2ccccc2)C1 (centres undefined)	564 s
CCCN1C(=O)c2ccccc2Sc2cc(-c3noc(CNC(=O)c4ccco4)n3)ccc21	911 s
CCCN1C(=O)COc2ccc(-c3noc(C(C)Oc4cccc(Cl)c4)n3)cc21 (centres undefined)	1260 s
CCc1ccc(CN2CCC([C@@H]3CNC[C@H]3CO)CC2)cc1	558 s
Cc1ccc(C)c(-c2nc(NC(=O)c3cc(C)on3)sc2C)c1	1110 s
CCn1cc2c(n1)c(=O)n(Cc1ccccc1)c(=O)n2CC(=O)NCc1ccccc1Br	890 s

Compound	RP-LC retention time
CCCNC(=O)N1CCCC(C)(C(=O)NCc2ccc(C)cc2)C1 (centres undefined)	799 s
CC(C)c1nccn1C1CN(C(=O)COc2ccccc2)C1	596 s
O=C(NCCn1nc(-c2ccc(Cl)cc2)ccc1=O)c1csc(-c2ccccc2)n1	854 s
COc1cc([C@@H]2c3cc4c(cc3[C@H](O)[C@@H](CO)[C@@H]2C(=O)NC(C)C)OCO4)cc(OC)c1OC	660 s
Cc1sc(C)c(S(=O)(=O)Nc2cccc(F)c2)c1-c1cc(C(F)(F)F)on1	1140 s
COc1cc([C@@H]2c3cc4c(cc3[C@H](O)[C@@H](CO)[C@@H]2C(=O)NCCc2ccccc2)OCO4)cc(OC)c1OC	745 s
CC(C)NC(=O)Cc1cn2cc(Br)ccc2n1	556 s
O=S(=O)(CCOc1ccccc1)N1CCN(c2ccccc2F)CC1	1010 s
CN(C)C(=O)c1cc2sc(Cl)cc2n1C	837 s
CCN(CCCNC(=O)c1sc2ncccc2c1-n1cccc1)c1ccccc1	709 s
CCn1cc(S(=O)(=O)N2CC(Cn3c(C)cnc3-c3ccncc3)C2)cn1	574 s
c1ccc(-c2csc(NCc3ccco3)n2)cc1	912 s
CC(=O)N(C1CCOCC1)C1CCN(S(=O)(=O)c2cc(F)ccc2C)CC1	792 s
O=C([C@@H]1C[C@H](Oc2cccnc2)CN1C(=O)C1CCC1)N1CCCC1	565 s
COc1cc(CC(=O)N2CCc3cc(-c4csc(C)n4)ccc32)cc(OC)c1	1020 s
Cc1ccc(C)c(NC(=O)N2CCCC(C)(C(=O)NCc3ccccc3)C2)c1 (centres undefined)	967 s
O=C(NCc1ccc2c(c1)OCO2)C1CCN(c2cnc3nccnc3c2)CC1	659 s
CCOC(=O)c1cccc(N2C=C(C(=O)OC)S(=O)(=O)c3cc(F)ccc32)c1	932 s
CCc1nc2cc(-c3noc(-c4cccc(OC)c4)n3)ccc2o1	1210 s
Cn1cc(-c2nc(C(=O)NCc3ccc(F)c(Cl)c3)cs2)c2cccnc21	975 s
CCc1nc2cc(-c3noc(-c4cccc(N(C)C)c4)n3)ccc2o1	1230 s
Cc1cccc(Oc2nccnc2Sc2ccccc2C(=O)N2CCN(c3ccccn3)CC2)c1	761 s

More lines, now with the values ahead:

RP-LC retention time	Compound
1030 s	Cc1ccc(NC(=O)CN2CCc3ccccc3C2C(=O)N2CCCCC2)cc1Cl (centres undefined)
599 s	O=C1CCCN1CCCN1C(=O)[C@H]2CN(Cc3ccc(F)c(Cl)c3)C[C@H]2C1=O
722 s	Cn1cnc(S(=O)(=O)NCCN2C(=O)C3(CCCCC3)C2c2ccccc2)c1 (centres undefined)
579 s	Cc1cccc2c(C(N)=O)cc(N3CCN(C)CC3)nc12
722 s	Cc1ccn2cc(-c3ccc(NC(=O)CCC4CCCC4)cc3)nc2n1
632 s	O=C(CNC(=O)c1ccc(F)c(F)c1)Nc1nc2ccccc2[nH]1
719 s	COc1cc(OC)c(NC(=O)CN2C(=O)CN(C)C(=O)c3ccccc32)cc1Cl
603 s	CCC(=O)N1CCN(Cc2nc3cc(NC(=O)CC(C)C)ccc3n2C)CC1
774 s	Cc1ccc(NC(=O)N2CCC(c3cc(N)on3)CC2)cc1Cl
1070 s	Cc1cc(C)cc(NC(=O)C2CCN(S(=O)(=O)c3ccc4c(c3)sc(=O)n4C(C)C)CC2)c1
656 s	COc1ccc(-c2cc3n(n2)CCCN(C(C)=O)C3)cc1
855 s	Cc1ccc(NC(=O)NC2CCN(c3ccccc3)C2=O)cc1F (centres undefined)
708 s	COCCC(=O)NC1CCN(C2=NS(=O)(=O)C(c3ccc(C)cc3)=C2C)CC1
693 s	O=C([C@@H]1C[C@H](F)CN1C(=O)c1cccc(F)c1)N1CCCCC1
828 s	CN1C(=O)c2cc(C(=O)NCc3ccccc3Br)nn2CC1(C)C(=O)NC1CCCC1 (centres undefined)
697 s	COc1ccc(C(=O)N2CCN(c3c(C)n(C)c(=O)n(C)c3=O)CC2)cc1
617 s	O=C(Nc1ccc(S(=O)(=O)N2CCCCC2c2cccnc2)cc1)c1ccccc1F (centres undefined)
683 s	CCOc1ccc(Nc2c(C(=O)N3CCCCC3CC)cnc3nc(C)ccc23)cc1 (centres undefined)
700 s	COC(=O)c1ccc(NC(=O)Cn2c(=O)c3cc(C)nn3c3ncccc32)cc1
617 s	Cc1ccc(CNC(=O)c2ccc3ncnc(N4CCCC4)c3c2)o1
804 s	CCOC(=O)CNC(=O)N1CCCC1c1ccccc1Cl (centres undefined)
604 s	CCNC(=O)Nc1ccc(OCC(=O)N2CCN(c3ncccn3)CC2)nc1
725 s	O=C(Nc1cnc(N2CCOCC2)nc1)c1ccccc1Br

RP-LC retention time	Compound
839 s	Cc1ccc(N2CCC(NC(=O)CC3CCCC3)C2=O)cc1 (centres undefined)
769 s	CC1=C(c2ccccc2)S(=O)(=O)N=C1N1CCCN(C(=O)C2CCC2)CC1
735 s	CN(C)C(=O)c1cc2c(s1)CCC(C(=O)N1CCN(c3ccccc3)CC1)C2 (centres undefined)
940 s	Cc1nc(-c2csc(S(=O)(=O)N3CCCC(C(=O)NCc4ccccc4Cl)C3)c2)no1 (centres undefined)
601 s	CC(C(=O)NCCN1CCCCC1)n1c(=O)c(C(F)(F)F)nc2ccccc21 (centres undefined)
656 s	O=C(Cn1nc2c3cc(F)ccc3ncn2c1=O)Nc1ccccc1F
676 s	COc1cccc(Nc2nnc(CC(=O)N3CCSCC3)s2)c1
930 s	COc1ccccc1-c1nc(C2CCN(C(=O)c3cc4ccccc4[nH]3)CC2)no1
644 s	Cn1c(C2CCN(C(=O)NCc3ccc(F)cc3)CC2)cc(=O)n2nccc12
721 s	CCN(c1ccc(F)cc1)S(=O)(=O)c1cc2n(c1)CCCNC2=O
789 s	Cc1ccc(CCNS(=O)(=O)c2ccc3c(c2)CCCC(=O)N3)cc1
958 s	Cc1cccc(NC(=O)CN2C(=O)CCCc3cc(S(=O)(=O)N4CCCCC4)ccc32)c1
807 s	CCCNC(=O)C1CCN(c2nc3ccsc3c(=O)n2Cc2ccc(F)cc2)CC1
759 s	CC1CCCCN1c1ccn2c(=O)n(CC(=O)Nc3ccc(F)cc3)nc2n1 (centres undefined)
541 s	O=C1NC(C(=O)NCc2ccccn2)Cn2cccc21 (centres undefined)
649 s	CCOC(=O)N1CCN(c2cc(C(=O)O)c3cc(NC(=O)c4cccc(C)c4)ccc3n2)CC1
667 s	Cc1ccn2c(NC(=O)c3ccc([N+](=O)[O-])cc3)c(-c3ccccc3)nc2c1
854 s	Cc1cc(C)cc(N2CCC(NC(=O)c3ccc(C#N)cc3)C2=O)c1 (centres undefined)
723 s	CCN1CCn2cc(S(=O)(=O)Nc3ccc(C)cc3)cc2C1=O
851 s	CC(C)NC(=O)c1nnc(-c2ccc(S(=O)(=O)N3CCCCC3)cc2)o1
748 s	Cc1cccc(NC(=O)N2CCC3(CC2)NC(=O)c2cc(F)ccc2N3C)c1
706 s	Cc1cc(C)n(Cc2ccc(C(=O)N3CCN(c4ccc(=O)n(-c5ccccc5)n4)CC3)o2)n1
